Our source for the IC50 values is patent US20260034123A1 (Cedilla Therapeutics, Inc., priority 2022, published 2026).

One experiment addresses CDK2/Cyclin E1 (Homo sapiens, UniProt P24941). Briefly: Caliper LabChip EZ Reader mobility shift assay. The note with it: 2.5 nM CDK2/Cyclin E1(14-475), 100 μM ATP, 30 min preincubation; read-out: Caliper Assay (CDK2/CCNE1): IC50. The format is biochemical. How it is done: Inhibition of CDK2/Cyclin E1 activity in the presence of compounds of the present disclosure was evaluated using a Caliper LabChip® EZ Reader mobility shift assay. In the assay, activated CDK2/Cyclin E1 catalyzes the phosphorylation of a fluorescently tagged peptide 5-FAM-QSPKKG-CONH2 (PerkinElmer, FL Peptide 18) which induces a difference in capillary electrophoresis mobility. The peptide substrate and product were measured, and the conversion ratio was used to determine the inhibition (as % activity and IC50 values) of CDK2/Cyclin E1. Reactions contained 50 mM HEPES pH 7.5, 10 mM MgCl2, 1 mM EDTA, 2 mM DTT, 0.01% Brij35, 0.5 mg/mL BSA, 0.1% DMSO, 2.5 nM CDK2/Cyclin E1(14-475), 100 μM ATP, and 1.5 μM fluorescent peptide substrate.
Dose titrations of inhibitors in 100% DMSO were combined with 3.25 nM CDK2/Cyclin E1(14-475) and 130 μM of ATP in reaction buffer. The mixtures were incubated for 30 minutes before the addition of fluorescent peptide substrate to initiate the kinase reaction. The final conditions were 2.5 nM CDK2/Cyclin E1(14-475), 100 μM ATP, and 1.5 μM fluorescent peptide. The reactions were stopped after 100 minutes with the addition of EDTA (6 mM final EDTA concentration). The stopped reactions were analyzed on a Caliper LabChip® EZ Reader 11. The conversion ratios were normalized to yield % activity, plotted against compound concentration, and fit to a four-parameter equation to determine the IC50 for each compound.

Another experiment has as its system Kuramochi cells RB-WT. The experiment is described as follows: IncuCyte Kuramochi cell proliferation assay, RB-WT. The format is cell-based. The note with it: 72 hours, cell count. The gist of the method:
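GI50 was derived by curve-fitting DMSO-normalized fold change in nuclear count between 0 and 72 h. Counts came from images of Kuramochi cells carrying mApple-H2B. Compounds were dosed over 10 points at 1/2-log spacing from a 20 µM top concentration.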

As to `O=C(c1cncs1)N1C[C@@H](COCc2cccc(-c3ccc(C(F)(F)F)cc3)n2)C2(CN(CC3COC3)C2)C1` [Compound I-15, (S)-(2-(oxetan-3-ylmethyl)-8-(((6-(4-(trifluoromethyl)phenyl)pyridin-2-yl)methoxy)methyl)-2,6-diazaspiro[3.4]octan-6-yl)(thiazol-5-yl)methanone], the IC50 on CDK2/Cyclin E1 and in the experiment on Kuramochi cells RB-WT was over 10 µM in each case.
With `CC(C)(C)CN1CC2(C1)CN(C(=O)c1cncs1)C[C@H]2COCc1cccc(-c2ccc(C(F)(F)F)cc2)n1` [Compound I-16, (S)-(2-neopentyl-8-(((6-(4-(trifluoromethyl)phenyl)pyridin-2-yl)methoxy)methyl)-2,6-diazaspiro[3.4]octan-6-yl)(thiazol-5-yl)methanone], the IC50 at CDK2/Cyclin E1 is over 10 µM; in the experiment on Kuramochi cells RB-WT it was 5 to 10 µM.
For `CC(C)(C)CN1CC2(C1)CN(C(=O)c1cnccn1)C[C@H]2COCc1cccc(-c2ccc(C(F)(F)F)cc2)n1` [Compound I-17, (S)-(2-neopentyl-8-(((6-(4-(trifluoromethyl)phenyl)pyridin-2-yl)methoxy)methyl)-2,6-diazaspiro[3.4]octan-6-yl)(pyrazin-2-yl)methanone] the same measures were over 10 µM and over 10 µM.
On to `CC1(C)C[C@@H]1C(=O)N1CC2(CN(C(=O)c3cnccn3)C[C@H]2COCc2cccc(-c3ccc(C(F)(F)F)cc3)n2)C1` [Compound I-18, ((S)-2-((S)-2,2-dimethylcyclopropane-1-carbonyl)-8-(((6-(4-(trifluoromethyl)phenyl)pyridin-2-yl)methoxy)methyl)-2,6-diazaspiro[3.4]octan-6-yl) (pyrazin-2-yl)methanone], for which the figures for the IC50 at CDK2/Cyclin E1 and in the experiment with Kuramochi cells RB-WT were 0.01 to 0.1 µM and over 10 µM, respectively.
Turning to `CC1(C)C[C@@H]1C(=O)N1CC2(CN(Cc3cnccn3)C[C@H]2COCc2cccc(-c3ccc(C(F)(F)F)cc3)n2)C1` [Compound I-19, ((S)-2,2-dimethylcyclopropyl)((S)-6-(pyrazin-2-ylmethyl)-8-(((6-(4-(trifluoromethyl)phenyl)pyridin-2-yl)methoxy)methyl)-2,6-diazaspiro[3.4]octan-2-yl) methanone], the IC50 at CDK2/Cyclin E1 and with Kuramochi cells RB-WT was over 10 µM throughout.
Take `CC1(C)C[C@@H]1C(=O)N1CC2(CN(C(=O)c3cncs3)C[C@H]2COCc2cccc(-c3cccnc3)n2)C1` [Compound I-20, ((S)-8-(([2,3′-bipyridin]-6-ylmethoxy)methyl)-2-((S)-2,2-dimethylcyclopropane-1-carbonyl)-2,6-diazaspiro[3.4]octan-6-yl)(thiazol-5-yl)methanone]: the IC50 at CDK2/Cyclin E1 was 0.1 to 1 µM; with Kuramochi cells RB-WT, over 10 µM.
As for `CC1(C)C[C@@H]1C(=O)N1CC2(CN(C(=O)c3cncs3)C[C@H]2COCc2cccc(-c3ccc(C(F)(F)F)nc3)n2)C1` [Compound I-21, ((S)-2-((S)-2,2-dimethylcyclopropane-1-carbonyl)-8-(((6′-(trifluoromethyl)-[2,3′-bipyridin]-6-yl)methoxy)methyl)-2,6-diazaspiro[3.4]octan-6-yl)(thiazol-5-yl)methanone], the values for the IC50 on CDK2/Cyclin E1 and in the experiment on Kuramochi cells RB-WT were 0.1 to 1 µM and over 10 µM, respectively.
For the compound `CC1(C)C[C@@H]1C(=O)N1CC2(CN(C(=O)c3cncs3)C[C@H]2COc2cccc3c(C4CCOCC4)cccc23)C1` [Compound I-22, ((S)-2-((S)-2,2-dimethylcyclopropane-1-carbonyl)-8-(((5-(tetrahydro-2H-pyran-4-yl)naphthalen-1-yl)oxy)methyl)-2,6-diazaspiro[3.4]octan-6-yl)(thiazol-5-yl)methanone], the IC50 was 0.1 to 1 µM at CDK2/Cyclin E1 and over 10 µM with Kuramochi cells RB-WT.
Consider `CC1(C)C[C@@H]1C(=O)N1CC2(CN(C(=O)c3cncs3)C[C@H]2COc2cncc3c(C4CCOCC4)cccc23)C1` [Compound I-23, ((S)-2-((S)-2,2-dimethylcyclopropanecarbonyl)-8-(((8-(tetrahydro-2H-pyran-4-yl)isoquinolin-4-yl)oxy)methyl)-2,6-diazaspiro[3.4]octan-6-yl)(thiazol-5-yl)methanone], for which the IC50 at CDK2/Cyclin E1 is 1 to 10 µM; in the experiment with Kuramochi cells RB-WT, over 10 µM.
For `CC1(C)C[C@@H]1C(=O)N1CC2(CN(C(=O)c3cncs3)C[C@H]2COCc2cccc(C3CCC(OC(F)(F)F)CC3)n2)C1` (stereo partly drawn) [Compound I-24, ((S)-2-((S)-2,2-dimethylcyclopropane-1-carbonyl)-8-(((6-(4-(trifluoromethoxy)cyclohexyl)pyridin-2-yl)methoxy)methyl)-2,6-diazaspiro[3.4]octan-6-yl)(thiazol-5-yl) methanone] the same measures were 0.01 to 0.1 µM and 5 to 10 µM.
On the same counts, the results for `CC1(C)C[C@@H]1C(=O)N1CC2(CN(C(=O)c3cncs3)C[C@H]2COc2nccc3c(C4CCOCC4)cccc23)C1` [Compound I-25, ((S)-2-((S)-2,2-dimethylcyclopropanecarbonyl)-8-(((5-(tetrahydro-2H-pyran-4-yl)isoquinolin-1-yl)oxy)methyl)-2,6-diazaspiro[3.4]octan-6-yl)(thiazol-5-yl)methanone] are 0.1 to 1 µM and over 10 µM.
As to `CN(Cc1cccc(C2CCOCC2)n1)C[C@@H]1CN(C(=O)c2cncs2)CC12CN(C(=O)[C@H]1CC1(C)C)C2` [Compound I-26, (2-((S)-2,2-dimethylcyclopropanecarbonyl)-8-((methyl((6-(tetrahydro-2H-pyran-4-yl)pyridin-2-yl)methyl)amino)methyl)-2,6-diazaspiro[3.4]octan-6-yl)(thiazol-5-yl) methanone], the IC50 at CDK2/Cyclin E1 and in the experiment with Kuramochi cells RB-WT was over 10 µM in each case.
Consider `CC1(C)C[C@@H]1C(=O)N1CC2(CN(C(=O)c3cncs3)C[C@H]2COCc2cc3ccccc3c(C3CCOCC3)n2)C1` [Compound I-28, ((S)-2-((S)-2,2-dimethylcyclopropane-1-carbonyl)-8-(((1-(tetrahydro-2H-pyran-4-yl)isoquinolin-3-yl)methoxy)methyl)-2,6-diazaspiro[3.4]octan-6-yl)(thiazol-5-yl)methanone], for which the IC50 at CDK2/Cyclin E1 is 0.1 to 1 µM; in the experiment on Kuramochi cells RB-WT it was over 10 µM.
As to `CC1(C)C[C@@H]1C(=O)N1CC2(CN(C(=O)c3cncs3)C[C@H]2COCc2ccn[nH]2)C1` [Compound I-29, ((S)-8-(((1H-pyrazol-5-yl)methoxy)methyl)-2-((S)-2,2-dimethylcyclopropanecarbonyl)-2,6-diazaspiro[3.4]octan-6-yl)(thiazol-5-yl)methanone], the IC50 at CDK2/Cyclin E1 and in the experiment on Kuramochi cells RB-WT was over 10 µM each time.
Regarding `CC1(C)C[C@@H]1C(=O)N1CC2(CN(C(=O)c3cncs3)C[C@H]2COc2cccc3ccc(C4CCOCC4)nc23)C1` [Compound I-30, ((S)-2-((S)-2,2-dimethylcyclopropanecarbonyl)-8-(((2-(tetrahydro-2H-pyran-4-yl)quinolin-8-yl)oxy)methyl)-2,6-diazaspiro[3.4]octan-6-yl)(thiazol-5-yl)methanone], the IC50 is 1 to 10 µM at CDK2/Cyclin E1 and over 10 µM in the experiment on Kuramochi cells RB-WT.
Consider `CC1(C)C[C@@H]1C(=O)N1CC2(CN(C(=O)c3cncs3)C[C@H]2COCC2CCCCO2)C1` (stereo partly drawn) [Compound I-32, ((S)-2-((S)-2,2-dimethylcyclopropane-1-carbonyl)-8-(((tetrahydro-2H-pyran-2-yl)methoxy)methyl)-2,6-diazaspiro [3.4]octan-6-yl) (thiazol-5-yl) methanone], for which the IC50 on CDK2/Cyclin E1 and in the experiment with Kuramochi cells RB-WT was over 10 µM each time.
